Read-outs that look alike come from different tables or passages of the source.
Legend:
[1] = system: E. cloacae CQ1941; assay: Broth microdilution MIC/MBC, glycosides with or without polymyxins; assay type: cell-based; details: for MIC: Enterobacter cloacae, CQ1941
[2] = system: K. pneumoniae CQ1942; assay: Broth microdilution MIC, glycosides with or without polymyxins; assay type: cell-based, Klebsiella pneumoniae; details: for MIC: Klebsiella pneumoniae, CQ1942
[3] = system: K. pneumoniae CQ1947; assay: as above; assay type: cell-based, Klebsiella pneumoniae; details: for MIC: Klebsiella pneumoniae, CQ1947
[4] = system: P. aeruginosa CQ4924; assay: as above; assay type: cell-based, Pseudomonas aeruginosa; details: for MIC: Pseudomonas aeruginosa, CQ4924
[5] = alone, read-out: MICA (MIC of each compound individually)
[6] = combination with the lowest FICI
[7] = compound + colistin, lowest FICI

CCCCCCCCCCCCO[C@H]1O[C@H](C)C[C@H](O)[C@H]1O [Compound 1, dodecyl 4,6-dideoxy-α/β-D-xylo-hexopyranoside]
MIC of colistin in combination with the compound ([1]; Cpd conc. 0.4 μg/mL, strain D): > 0.5 µg/mL | MIC of colistin in combination with the compound ([1]; Cpd conc. 0.8 μg/mL, strain D): 0.5 µg/mL | MIC of colistin in combination with the compound ([1]; Cpd conc. 3.125 μg/mL, strain D): 0.25 µg/mL | MIC of colistin in combination with the compound ([1]; Cpd conc. 6.25 μg/mL, strain D): 0.25 µg/mL | MIC of colistin in combination with the compound ([1]; Cpd conc. 12.5 μg/mL, strain D): 0.25 µg/mL | MIC of colistin in combination with the compound ([1]; Cpd conc. […], strain D): 0.25 µg/mL | MIC ([1]; agent alone, no adjuvant (polymyxin conc. 0), strain D, read-out: MIC): > 100 µg/mL | MIC [1, 5]: > 100 µg/mL | MIC of compound in combination with PMB ([1]; PMB 0.25 μg/mL, strain D): > 100 µg/mL | MIC of compound in combination with PMB ([1]; PMB 0.5 μg/mL, strain D): 1.6 µg/mL | MIC of compound in combination with colistin ([1]; colistin 0.06 μg/mL, strain D): > 100 µg/mL | MIC of compound in combination with colistin ([1]; colistin 0.125 μg/mL, strain D): > 100 µg/mL | MIC of compound in combination with colistin ([1]; colistin 0.25 μg/mL, strain D): 1.6 µg/mL | MIC of compound in combination with colistin ([1]; colistin 0.5 μg/mL, strain D): 0.8 µg/mL | MICB(A + B) (MIC of colistin in combination with compound) [1, 6]: 0.25 µg/mL | Interpretation (of FICI) ([1]; compound + colistin): Additive (from 0.5 to 1.0 were additive) | FICI [1, 7]: 0.52 | MIC of colistin in combination with the compound ([2]; Cpd conc. 0.4 μg/mL, strain E): > 0.5 µg/mL | MIC of colistin in combination with the compound ([2]; Cpd conc. 0.8 μg/mL, strain E): 0.5 µg/mL | MIC of colistin in combination with the compound ([2]; Cpd conc. 3.125 μg/mL, strain E): 0.25 µg/mL | MIC of colistin in combination with the compound ([2]; Cpd conc. 6.25 μg/mL, strain E): 0.25 µg/mL | MIC of colistin in combination with the compound ([2]; Cpd conc. 12.5 μg/mL, strain E): 0.25 µg/mL | MIC of colistin in combination with the compound ([2]; Cpd conc. […], strain E): 0.5 µg/mL | MIC ([2]; agent alone, no adjuvant (polymyxin conc. 0), strain E, read-out: MIC): > 100 µg/mL | MIC [2, 5]: > 100 µg/mL | MIC of compound in combination with PMB ([2]; PMB 0.25 μg/mL, strain E): > 100 µg/mL | MIC of compound in combination with PMB ([2]; PMB 0.5 μg/mL, strain E): 1.6 µg/mL | MIC of compound in combination with colistin ([2]; colistin 0.06 μg/mL, strain E): > 100 µg/mL | MIC of compound in combination with colistin ([2]; colistin 0.125 μg/mL, strain E): > 100 µg/mL | MIC of compound in combination with colistin ([2]; colistin 0.25 μg/mL, strain E): 3.1 µg/mL | MIC of compound in combination with colistin ([2]; colistin 0.5 μg/mL, strain E): 0.8 µg/mL | MICA(A + B) (MIC of compound in combination with colistin) [2, 6]: 3.125 µg/mL | MICB(A + B) (MIC of colistin in combination with compound) [2, 6]: 0.25 µg/mL | Interpretation (of FICI) ([2]; compound + colistin): Additive (from 0.5 to 1.0 were additive) | FICI [2, 7]: 0.52 | MIC of colistin in combination with the compound ([3]; Cpd conc. 0.4 μg/mL, strain F): > 0.5 µg/mL | MIC of colistin in combination with the compound ([3]; Cpd conc. 0.8 μg/mL, strain F): > 0.5 µg/mL | MIC of colistin in combination with the compound ([3]; Cpd conc. 3.125 μg/mL, strain F): 0.5 µg/mL | MIC of colistin in combination with the compound ([3]; Cpd conc. 6.25 μg/mL, strain F): 0.5 µg/mL | MIC of colistin in combination with the compound ([3]; Cpd conc. 12.5 μg/mL, strain F): 0.5 µg/mL | MIC of colistin in combination with the compound ([3]; Cpd conc. […], strain F): > 0.5 µg/mL | MIC ([3]; agent alone, no adjuvant (polymyxin conc. 0), strain F, read-out: MIC): > 100 µg/mL | MIC [3, 5]: > 100 µg/mL | MIC of compound in combination with PMB ([3]; PMB 0.25 μg/mL, strain F): > 100 µg/mL | MIC of compound in combination with PMB ([3]; PMB 0.5 μg/mL, strain F): 3.1 µg/mL | MIC of compound in combination with colistin ([3]; colistin 0.06 μg/mL, strain F): > 100 µg/mL | MIC of compound in combination with colistin ([3]; colistin 0.125 μg/mL, strain F): > 100 µg/mL | MIC of compound in combination with colistin ([3]; colistin 0.25 μg/mL, strain F): > 100 µg/mL | MIC of compound in combination with colistin ([3]; colistin 0.5 μg/mL, strain F): 3.1 µg/mL | MICA(A + B) (MIC of compound in combination with colistin) [3, 6]: 3.125 µg/mL | MICB(A + B) (MIC of colistin in combination with compound) [3, 6]: 0.5 µg/mL | Interpretation (of FICI) ([3]; compound + colistin): Indifferent (1.0 to 4.0 were indifferent) | FICI [3, 7]: 1.016 | MIC of colistin in combination with the compound ([4]; Cpd conc. 0.4 μg/mL, strain H): > 0.5 µg/mL | MIC of colistin in combination with the compound ([4]; Cpd conc. 0.8 μg/mL, strain H): > 0.5 µg/mL | MIC of colistin in combination with the compound ([4]; Cpd conc. 3.125 μg/mL, strain H): > 0.5 µg/mL | MIC of colistin in combination with the compound ([4]; Cpd conc. 6.25 μg/mL, strain H): > 0.5 µg/mL | MIC of colistin in combination with the compound ([4]; Cpd conc. 12.5 μg/mL, strain H): > 0.5 µg/mL | MIC of colistin in combination with the compound ([4]; Cpd conc. […], strain H): > 0.5 µg/mL | MIC of compound in combination with PMB ([4]; PMB 0.25 μg/mL, strain H): > 100 µg/mL | MIC of compound in combination with PMB ([4]; PMB 0.5 μg/mL, strain H): > 100 µg/mL | MIC ([4]; agent alone, no adjuvant (polymyxin conc. 0), strain H, read-out: MIC): > 100 µg/mL | MIC [4, 5]: > 100 µg/mL | MIC of compound in combination with colistin ([4]; colistin 0.06 μg/mL, strain H): > 100 µg/mL | MIC of compound in combination with colistin ([4]; colistin 0.125 μg/mL, strain H): > 100 µg/mL | MIC of compound in combination with colistin ([4]; colistin 0.25 μg/mL, strain H): > 100 µg/mL

— PMC10817917, “Alkyl deoxyglycoside-polymyxin combinations against critical priority carbapenem-resistant gram-negative bacteria” (Scientific Reports, 2024)
